Legend:
[1] = molecular target: O-GlcNAcase (Rattus norvegicus (Rat), UniProt Q8VIJ5); assay: Cell-based ELISA for cellular activity of compounds that inhibit O-GlcNAcase (O-GlcNAcylated protein detected with RL-2 antibody); details: rat PC-12 cells, treated 24 h, O-GlcNAcylated protein by RL-2 ELISA
From the text: Assay for Determination of Cellular Activity for Compounds that Inhibit O-GlcNAcase Activity
Inhibition of O-GlcNAcase, which removes O-GlcNAc from cellular proteins, results in an increase in the level of O-GlcNAcylated protein in cells. An increase in 0-GlcNAcylated protein can be measured by an antibody, such as RL-2, that binds to 0-GlcNAcylated protein. The amount of O-GlcNAcylated protein:RL2 antibody interaction can be measured by enzyme linked immunosorbant assay (ELISA) procedures.
A variety of tissue culture cell lines, expressing endogenous levels of O-GlcNAcase, can be utilized; examples include rat PC-12, and human U-87, or SK-N-SH cells. In this assay, rat PC-12 cells are plated in 96-well plates with approximately 10,000 cells/well. Compounds to be tested are dissolved in DMSO, either 2 or 10 mM stock solution, and then diluted with DMSO and water in a two-step process using a Tecan workstation. […] To prepare a cell lysate, the media from compound treated cells is removed, the cells are washed once with phosphate buffered saline (PBS) and then lysed for 5 minutes at room temperature in 50 μL of Phosphosafe reagent (Novagen Inc, Madison, Wis.) with protease inhibitors and PMSF. The cell lysate is collected and transferred to a new plate, which is then either coated to assay plates directly or frozen −80° C. until used in the ELISA procedure. If desired, the total protein concentration of samples is determined using 20 μL of the sample using the BCA method.
The ELISA portion of the assay is performed in a black Maxisorp 96-well plate that is coated overnight at 4° C. with 100 μL/well of the cell lysate (1:10 dilution of the lysate with PBS containing protease inhibitors, phosphatase inhibitors, and PMSF). The following day the wells are washed 3 times with 300 μL/well of Wash buffer (Tris-buffered saline with 0.1% Tween 20). The wells are blocked with 100 μL/well Blocking buffer (Tris buffered saline w/0.05% Tween 20 and 2.5% Bovine serum albumin). Each well is then washed two times with 300 μL/well of wash buffer. The anti O-GlcNAc antibody RL-2 (Abcam, Cambridge, Mass.), diluted 1:1000 in blocking buffer, is added at 100 μL/well. The plate is sealed and incubated at 37° C. for 2 h with gentle shaking. The wells are then washed 3-times with 300 μL/well wash buffer. […] The detection reaction is incubated for 15 minutes at room temperature and then read with excitation at 530 nm and emission at 590 nm.
The amount of O-GlcNAcylated protein, as detected by the ELISA assay, is plotted for each concentration of test compound using standard curve fitting algorithms for sigmoidal dose response curves. The values for a four parameter logistic curve fit of the data are determined, with the inflection point of the curve being the potency value for the test compound.

[2] = molecular target: human O-GlcNAcase (Homo sapiens (Human), UniProt O60502); assay: Fluorescence-based assay for KI values for inhibition of O-GlcNAcase activity; assay type: biochemical; details: purified human O-GlcNAcase 0.7 nM, 2 mM 4-methylumbelliferyl GlcNAc substrate, pH 7.0, Cheng-Prusoff; read-out: Fluorescence-based hOGA Ki
Chain of human O-GlcNAcase (O60502 whole entry): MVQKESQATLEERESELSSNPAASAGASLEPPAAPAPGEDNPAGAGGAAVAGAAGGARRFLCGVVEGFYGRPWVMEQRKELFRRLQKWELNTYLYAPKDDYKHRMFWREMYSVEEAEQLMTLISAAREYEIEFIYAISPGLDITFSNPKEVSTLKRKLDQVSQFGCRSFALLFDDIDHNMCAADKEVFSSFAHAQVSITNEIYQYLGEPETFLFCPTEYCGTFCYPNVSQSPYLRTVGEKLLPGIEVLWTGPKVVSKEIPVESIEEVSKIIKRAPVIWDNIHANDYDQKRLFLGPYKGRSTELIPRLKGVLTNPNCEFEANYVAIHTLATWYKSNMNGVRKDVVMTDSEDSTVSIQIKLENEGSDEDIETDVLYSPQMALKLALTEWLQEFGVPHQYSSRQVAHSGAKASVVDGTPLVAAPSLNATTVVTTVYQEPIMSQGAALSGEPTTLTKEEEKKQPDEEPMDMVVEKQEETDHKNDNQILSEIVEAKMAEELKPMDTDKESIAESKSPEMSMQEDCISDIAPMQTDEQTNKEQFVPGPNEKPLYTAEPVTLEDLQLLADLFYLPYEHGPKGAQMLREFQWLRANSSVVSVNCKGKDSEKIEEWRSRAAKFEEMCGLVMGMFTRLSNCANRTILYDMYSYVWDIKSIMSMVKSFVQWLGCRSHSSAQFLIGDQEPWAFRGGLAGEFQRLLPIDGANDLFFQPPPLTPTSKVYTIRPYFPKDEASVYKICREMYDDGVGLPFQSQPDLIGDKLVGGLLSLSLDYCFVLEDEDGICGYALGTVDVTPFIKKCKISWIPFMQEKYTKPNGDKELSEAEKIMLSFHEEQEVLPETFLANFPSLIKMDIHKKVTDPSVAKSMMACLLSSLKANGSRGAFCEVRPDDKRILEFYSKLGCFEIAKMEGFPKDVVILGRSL
Experimental: Assay for Determination of KI Values for Inhibition of O-GlcNAcase Activity
Experimental Procedure for Kinetic Analyses:
Enzymatic reactions were carried out in a reaction containing 50 mM NaH2PO4, 100 mM NaCl and 0.1% BSA (pH 7.0) using 2 mM 4-Methylumbelliferyl N-acetyl-β-D-glucosaminide dihydrate (Sigma M2133) dissolved in ddH2O, as a substrate. The amount of purified human O-GlcNAcase enzyme used in the reaction was 0.7 nM. Test compound of varying concentrations was added to the enzyme prior to initiation of the reaction. The reaction was performed at room temperature in a 96-well plate and was initiated with the addition of substrate. […] The slope of product production was determined for each concentration of compound tested and plotted, using standard curve fitting algorithms for sigmoidal dose response curves. The values for a four parameter logistic curve fit of the data were determined.

[3] = Apparent permeability (Papp), bi-directional transport in LLC-PK1 cells; assay type: in vitro ADME; details: pig, 1 μM test compound, t=3 h, average of A to B and B to A
Experimental: Assay for Determination of Apparent Permeability (Papp)
Bi-directional transport was evaluated in LLC-PK1 cells in order to determine apparent permeability (Papp). LLC-PK1 cells can form a tight monolayer and therefore can be used to assess vectorial transport of compounds from basolateral to apical (B→A) and from apical to basolateral (A→B).
To determine Papp, LLC-PK1 cells were cultured in 96-well transwell culture plates (Millipore). Solutions containing the test compounds (1 μM) were prepared in Hank's Balanced Salt Solution with 10 mM HEPES. Substrate solution (150 μL) was added to either the apical (A) or the basolateral (B) compartment of the culture plate, and buffer (150 μL) was added to the compartment opposite to that containing the compound. At t=3 h, 50 μL samples were removed from both sides of monolayers dosed with test compound and placed in 96 well plates, scintillant (200 μL) or internal standard (100 μL labetolol 1 μM) was added to the samples and concentration was determined by liquid scintillation counting in a MicroBeta Wallac Trilux scintillation counter (Perkin Elmer Life Sciences, Boston, Mass.) or by LCMS/MS (Applied Biosystems SCIEX API 5000 triple quadruple mass spectrometer). […]
The apparent permeability, Papp, was calculated by the following formula for samples taken at t=3 h:
[formula] […] Papp was expressed as 10^−6 cm/s. […]

Chain of O-GlcNAcase (Q8VIJ5 whole entry): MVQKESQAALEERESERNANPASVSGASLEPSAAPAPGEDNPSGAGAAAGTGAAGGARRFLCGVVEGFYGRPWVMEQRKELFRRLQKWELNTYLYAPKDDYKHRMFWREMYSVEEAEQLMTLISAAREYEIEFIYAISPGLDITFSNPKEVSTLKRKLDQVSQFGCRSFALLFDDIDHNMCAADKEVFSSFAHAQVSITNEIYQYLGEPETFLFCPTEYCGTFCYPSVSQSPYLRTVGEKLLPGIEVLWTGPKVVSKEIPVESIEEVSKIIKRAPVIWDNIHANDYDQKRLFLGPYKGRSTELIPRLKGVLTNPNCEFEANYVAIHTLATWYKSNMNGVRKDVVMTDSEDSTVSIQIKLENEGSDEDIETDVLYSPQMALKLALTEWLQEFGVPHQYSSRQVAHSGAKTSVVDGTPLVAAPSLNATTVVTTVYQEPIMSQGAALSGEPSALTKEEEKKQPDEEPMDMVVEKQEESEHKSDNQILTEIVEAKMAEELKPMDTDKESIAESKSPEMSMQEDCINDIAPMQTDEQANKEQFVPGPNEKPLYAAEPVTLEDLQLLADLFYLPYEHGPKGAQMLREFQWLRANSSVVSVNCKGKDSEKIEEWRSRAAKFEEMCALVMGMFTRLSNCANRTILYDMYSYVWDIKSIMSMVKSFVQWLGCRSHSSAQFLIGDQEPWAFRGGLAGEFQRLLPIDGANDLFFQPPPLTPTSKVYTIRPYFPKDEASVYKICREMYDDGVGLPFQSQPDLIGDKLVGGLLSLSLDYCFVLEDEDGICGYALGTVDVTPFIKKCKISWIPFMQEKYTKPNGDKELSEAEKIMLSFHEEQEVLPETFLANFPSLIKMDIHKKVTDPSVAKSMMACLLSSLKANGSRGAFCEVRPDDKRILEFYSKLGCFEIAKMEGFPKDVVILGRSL

Row | Compound | EC50 [1] | Ki [2] | Papp at 3 h, 1 μM [3]
1 | CNC1=N[C@H]2[C@@H](S1)S[C@H](CO)[C@@H](O)[C@@H]2O [Example 4, (3aR,5R,6S,7R,7aR)-5-(hydroxymethyl)-2-(methylamino)-5,6,7,7a-tetrahydro-3aH-thiopyrano[3,2-d]thiazole-6,7-diol] | 3 nM | 0.11 nM | 
2 | CCNC1=N[C@@H]2[C@@H](O)[C@H](O)[C@@H](CO)O[C@@H]2S1 [N/A, (3 aR,5R,6S,7R,7aR)-2-(ethylamino)-5-(hydroxymethyl)-5,6,7,7a-tetrahydro-3aH-pyrano[3,2-d]thiazole-6,7-diol, reference compound] |  |  | < 1 ×10⁻⁶ cm/s
3 | CCNC1=N[C@@H]2[C@@H](O)[C@H](O)[C@@H](CO)S[C@@H]2O1 [Example 1, (3aS,5R,6S,7R,7aR)-2-(ethylamino)-5-(hydroxymethyl)-5,6,7,7a-tetrahydro 3aH-thiopyrano[3,2-d]oxazole-6,7-diol] |  | 3 nM | 
4 | CCNC1=N[C@H]2[C@@H](S1)S[C@H](CO)[C@@H](O)[C@@H]2O [Example 2, (3aR,5R,6S,7R,7aR)-2-(ethylamino)-5-(hydroxymethyl)-5,6,7,7a-tetrahydro-3aH-thiopyrano[3,2-d]thiazole-6,7-diol] | 139 nM | 3 nM | 3.7 ×10⁻⁶ cm/s
5 | CCCNC1=N[C@H]2[C@@H](S1)S[C@H](CO)[C@@H](O)[C@@H]2O [Example 3, (3aR,5R,6S,7R,7aR)-5-(hydroxymethyl)-2-(propylamino)-5,6,7,7a-tetrahydro-3aH-thiopyrano[3,2-d]thiazole-6,7-diol] | 29 nM | 1.4 nM | 
6 | CCNC1=N[C@H]2[C@@H](S1)S[C@H](C(F)F)[C@@H](O)[C@@H]2O [Example 5, (3aR,5S,6S,7R,7aR)-5-(difluoromethyl)-2-(ethylamino)-5,6,7,7a-tetrahydro-3aH-thiopyrano[3,2-d]thiazole-6,7-diol] | 349 nM | 22 nM | 

Source: US9695197B2, “Glycosidase inhibitors and uses thereof” (Alectos Therapeutics Inc., priority 2012, dated 2017)
